# Structures can show the parent of a compound that is named as a salt. Where no end group is shown, it is not given here.
# System: SMN protein in SMA patient fibroblasts (GM03813)
# Test: SMN cytoblot assay (SMN protein levels in SMA patient fibroblasts)
# Type: cell-based, human
# Settings: not given
# From the text: One method for monitoring SMN protein levels in cells is through use of a cytoblot assay, in which cells are fixed and probed with an antibody against a target protein of interest. We have used a cytoblot assay to determine the concentration of SMN protein in SMA patient fibroblasts, and have identified small molecules that increase SMN protein concentration.
# Using the cytoblot assay, we can clearly distinguish SMN protein levels in patient (GM03813) versus carrier fibroblast cells (GM03814), as shown in the FIGS. 1A and 1B.
# • 1. Plate 50 μl per well of 300,000 cells/ml (15,000 cells per well) into Nunc white 384-well opaque-bottomed plates. • 2. Incubate plates at 37° C., 5% CO2 overnight. Day 2 • 1. Aspirate media from wells using Tecan plate washer. • 2. Fix cells by adding 20 μl/well of cold methanol (kept in −20° C. freezer). • 3. Incubate plates in 4° C. refrigerator for 10 minutes. • 4. Aspirate methanol using Tecan plate washer. • 5. Add 50 μl/well of primary Ab solution, (BD anti-SMN Ab diluted to 125 ng/ml in 10% fetal goat serum PBST), using multi-drop. • 6. Seal plates and incubate overnight at room temperature. Day 3 • 1. After 16-20 hrs incubation, wash plates with PBST 2× using Tecan plate washer. • 2. Add 50 μl of secondary Ab solution, (Santa Cruz goat anti-Mouse-HRP diluted to 67 ng/ml in 10% fetal goat serum PBST). • 3. Seal plates and incubate 2 hrs at room temperature. • 4. Wash plates with PBST 2× using Tecan plate washer. • 5. Add 50 μl/well 10% fetal goat serum PBST. • 6. Incubate in 4° C. refrigerator for 10 minutes. • 7. Aspirate plates using plate washer and add ECL luminescence solution, 20 μl/well. • 8. Measure luminescence on plate reader. Automated Scoring
# We scored each compound based on the maximum signal-to-noise ratio (SNR) found among its dose curves. These scores are based on edge-corrected SMN data, using only plates that passed quality control. The untreated level on each plate was found by taking the median of the untreated wells, and for each treated well we calculated a log(T/U) ratio. Each curve was generated in triplicate on each plate, so each point on a compound's dose curve was obtained by determining the median for the replicate points. Each ratio thus has an error estimate from the scatter between the triplicate data points (1.5 times the median absolute deviation from the median). For each dose curve, we calculated the SNR for each data point log(T/U)/error, and chose the maximum point as our indicator of SMN induction activity. Since this is a signal-to-noise score, scores much greater than one indicate significant activity, assuming normal statistics. We decided to use a cutoff signal-to-noise ratio of 6. This selection represents a considerable enrichment towards visually-selected compounds. We identified 100 out of 2000 compounds producing scores >6. This included 13 of the 28 visual selections.
row,Compound,SNR
1,Ferrous Sulfate,7.55
2,Ferric Ammonium Citrate,19.4
3,CS(=N)(=O)CC[C@H](N)C(=O)O (stereo partly drawn) [L-Methionine Sulfoximine],7.29
4,[Ca+2].[Cl-].[Cl-] [Calcium Chloride],7.63

# Same assay, conditions: maximum signal-to-noise ratio log(T/U)/error among a compound's dose curves, SMN cytoblot; cutoff 6; column Scoring says Automated or Visual selection
row,Compound,SNR
1,CN(C)[C@@H]1C(O)=C(C(N)=O)C(=O)[C@@]2(O)C(O)=C3C(=O)c4c(O)ccc(Cl)c4[C@@](C)(O)[C@H]3C[C@@H]12 [Chlortetracycline Hydrochloride],10.4
2,O=C(OCc1ccccc1)c1ccccc1 [Benzyl Benzoate],9.42
3,Neomycin Sulfate,7.96
4,CC(C)NCC(O)COc1ccc(CCOCC2CC2)cc1 (stereo not drawn) [Betaxolol Hydrochloride],7.21
5,CCN(CC)CCNC(=O)c1cc(S(C)(=O)=O)ccc1OC [Tiapride],10.5
6,O=C(O)[C@H](O)[C@@H](O)C(=O)O [L-Tartaric acid],6.92
7,CC[C@]12CCCN3CCc4c(n(c5ccccc45)[C@@](O)(C(=O)OC)C1)[C@@H]32 [Vincamine],6.94
8,CC(CCc1ccc(O)cc1)NCCc1ccc(O)c(O)c1 (stereo not drawn) [Dobutamine Hydrochloride],6.47
9,Nonoxynol-9,7
10,"N=C(N)NC(=O)Cc1c(Cl)cccc1Cl [Guanfacine Hydrochloride, (N-aminoiminomethyl)-2,6-dichlorobenzeneacetamide]",7.24
11,CC[N+](CC)(CC)CCOc1cccc(OCC[N+](CC)(CC)CC)c1OCC[N+](CC)(CC)CC [Gallamine Triethiodide],15.4
12,CC[C@@H](C(N)=O)N1CCCC1=O [Levetiracetam],7.74
13,CN1CCN(C2=Nc3ccccc3Oc3ccc(Cl)cc32)CC1 [Loxapine Hydrochloride],10.1
14,O=C(O)c1ccccc1OP(=O)(O)O [Fosfosal],6.77
15,COc1c2occc2c(OC)c2c(=O)cc(C)oc12 [Khellin],6.73
16,CCCC(CCC)C(=O)O[C@H]1C[C@H]2CC[C@@H](C1)[N+]2(C)C [Anisotropine Methylbromide],6.43
17,CC(C)NCC(O)COc1cccc2ccccc12 (stereo not drawn) [Propranolol Hydrochloride],7.38
18,C=C(C)C1CCC(C)CC1OC(C)=O (stereo not drawn) [Isopulegol acetate],11.4
19,CC(=O)OCC(=O)[C@@]12OC(C)(C)O[C@@H]1C[C@H]1[C@@H]3C[C@H](F)C4=CC(=O)C=C[C@]4(C)[C@@]3(F)[C@@H](O)C[C@@]12C [Fluocinonide],7.01
20,NCC1(CC(=O)O)CCCCC1 [Gabapentin],6.84
21,CC1CCC(=CC(=O)O)CC1 (stereo not drawn) [2-(4-methyl010cyclohexylidene) acetic acid],6.16
22,CN(C)CCC(O)(c1ccccc1)c1ccccc1Cl (stereo not drawn) [Chlophedianol Hydrochloride],7.44
23,Teicoplanin,9.72
24,S=[Se]=S [Selenium Sulfide],7.08

row,Compound,SNR
1,CC(=O)OC/C=C(\C)CCC=C(C)C [Geranyl Acetate],6.71
2,CCCCCCCC/C=C\CCCCCCCC(=O)OC [Methyl Oleate],7.89
3,O=C1Nc2ccc(Cl)cc2[C@@](C#CC2CC2)(C(F)(F)F)O1 [Efavirenz],13.1
4,C[C@H](CCC(=O)O)[C@H]1CC[C@H]2[C@@H]3[C@@H](O)C[C@@H]4C[C@H](O)CC[C@]4(C)[C@H]3CC[C@]12C [Ursodiol],9.2
5,CC1(C)S[C@@H]2[C@H](NC(=O)C(C(=O)O)c3ccccc3)C(=O)N2[C@H]1C(=O)O (stereo partly drawn) [Carbenicillin Disodium],7.99
6,CN[C@@H]1[C@H](O)[C@H](NC)[C@H]2O[C@@]3(O)C(=O)C[C@@H](C)O[C@H]3O[C@@H]2[C@H]1O [Spectinomycin],11
7,C#CCN(C)Cc1ccccc1 [Pargyline],6.52
8,C[N+]1(CCC(C(N)=O)(c2ccccc2)c2ccccc2)CCCCC1 [Fenpiverinium Bromide],7.49
9,C[C@H]1COc2c(C3(N)CC3)c(F)cc3c(=O)c(C(=O)O)cn1c23 [Pazufloxacin],7.83
10,Gentamicin Sulfate,14.9
11,[Cl][Cu][Cl] [Cupric Chloride],12.1
12,CCCCc1cccs1 [2-n-Butylthiophene],8.96
13,C/C=C/c1ccc(OC)cc1 [Trans-Anethole],8.35
14,CC(C[N+](C)(C)C)OC(N)=O (stereo not drawn) [Bethanechol Chloride],9.26
15,C=CCOc1ccccc1OCC(O)CNC(C)C (stereo not drawn) [Oxprenolol Hydrochloride],6.52
16,CC(=O)Oc1cc(C(C)C)c(OCCN(C)C)cc1C [Moxisylyte Hydrochloride],14.3
17,Dibekacin Sulfate Salt,6.79
18,CCCCCC(Br)C(=O)O (stereo not drawn) [alpha-Bromohepyanoic acid],8.41
19,C=N[C@@H](C(=O)N[C@@H]1C(=O)N2[C@@H]1SC(C)(C)[C@@H]2C(=O)O)c1ccccc1 [Metampicillin],9.95
20,[2-(hexahydro-1 (2H)-azocinyl)ethyl]guanidine [Guanethidine Monosulfate],11.3
21,CCC(=O)OCC(=O)[C@@]1(OC(=O)CC)[C@@H](C)C[C@H]2[C@@H]3CCC4=CC(=O)C=C[C@]4(C)[C@@]3(Cl)[C@@H](O)C[C@@]21C [Beclomethasone Dipropionate],6.27
22,CCOC(=O)[C@H](CCc1ccccc1)N[C@@H](C)C(=O)N1CCC[C@H]1C(=O)O [Enalapril],6.77
23,C=CCSSCC=C [Allyl Disulfide],9.08
24,O=c1[nH]c(=O)n(C2CCCO2)cc1F (stereo not drawn) [Tegafur],6.74

row,Compound,SNR
1,CCCC(CCC)C(=O)O [Divalproex Sodium],6.59
2,O=C(N/N=C/c1ccc([N+](=O)[O-])o1)c1ccc(O)cc1 [Nifuroxazide],6.96
3,NCCc1c[nH]c2ccc(O)cc12 [Serotonin],6.15
4,CC(C)(C)OC(=O)N1CCCNCC1 [1-Boc-homopiperazine],6.66
5,CC(C)=CCCC(C)CC=O (stereo not drawn) [Citronellal],8.6
6,CC1(C)S[C@@H]2[C@H](NC(=O)[C@H](NC(=O)N3CCNC3=O)c3ccccc3)C(=O)N2[C@H]1C(=O)O [Azlocillin Sodium],6.7
7,"Calcitonin (CGNLSTCMLGTYTQDFNKFHTFPQTAIGVGAP; ends and bridges not checked; cysteine pairing not given here; UniProt P01258 85-116, looked up)",7.46
8,CCCN1C[C@H](CSC)C[C@@H]2c3cccc4[nH]cc(c34)C[C@H]21 [Pergolide Mesylate],7.69
9,CC(=O)N1C[C@H](O)C[C@H]1C(=O)O [Oxaceprol],10.6
10,CC(C)(S)C(N)C(=O)O (racemic) [dl-Penicillamine],9.63
11,C=CCCC(=O)O [4-Pentenoic acid],10.8
12,O=C1O[C@H]([C@@H](O)CO)C(O)=C1O [Ascorbic Acid],6.29
13,OC[C@@H](O)[C@@H](O[C@@H]1O[C@H](CO)[C@H](O)[C@H](O)[C@H]1O)[C@H](O)[C@@H](O)CO [Lactitol],15.8
14,CNC[C@H](O)c1ccc(O)c(O)c1 [Epinephrine Bitartrate],8.26
15,CN1CCCN=C1/C=C/c1cccs1 [Pyrantel Pamoate],6.22
16,CCN(CC)C(C)CN1c2ccccc2Sc2ccccc21 (stereo not drawn) [Ethopropazine Hydrochloride],9.61
17,C=CCSC[C@H](N)C(=O)O [S-Allyl-L-Cysteine],9.02
18,CC1=C(/C=C/C(C)O)C(C)(C)CCC1 (stereo not drawn) [Beta-Ionol],10.3
19,CN(CC(=O)O)C(=N)N [Creatine],8.34
20,CC(C)(Oc1ccc(CCNC(=O)c2ccc(Cl)cc2)cc1)C(=O)O [Bezafibrate],7.38
21,"COc1ccc(CC(C)=O)cc1OC [3,4-Dimethoxyphenylacetone]",7.25
22,CC(C)CCCC(C)CCCC(C)CCCCC(C)CCCC(C)CCCC(C)C (stereo not drawn) [Hexamethyltetracosane],6.64
23,COC(=O)[C@H]1[C@H]2C[C@@H]3c4[nH]c5cc(OC)ccc5c4CCN3C[C@H]2C[C@@H](OC(=O)/C=C/c2cc(OC)c(OC)c(OC)c2)[C@@H]1OC [Rescinnamine],6.3

# — patent US20060286167A1, “Compositions and methods for the treatment of neurodegenerative diseases” (priority 2005, published 2006)
